From patent US9700545B2 (Salix Pharmaceuticals, Ltd, priority 2008, dated 2017)

Tests used:
Type in all cases: physicochemical
[1] = Automated moisture sorption/desorption (MB / DVS); details: for form by XRPD after moisture sorption/desorption: sorption from 5% RH to 95% RH, desorption from 95% RH to 5% RH; for hygroscopicity: result in words; for XRPD following DVS: line after DVS
Description: Based on the data, relative humidity stressing studies of the two amorphous materials at 40° C./75% RH are recommended. Moisture sorption/desorption data were collected on a VTI SGA-100 Vapor Sorption Analyzer. Sorption and desorption data were collected over a range of 5% to 95% relative humidity (RH) at 10% RH intervals under a nitrogen purge. Samples were not dried prior to analysis. Equilibrium criteria used for analysis were less than 0.0100% weight change in 5 minutes, with a maximum equilibration time of 3 hours if the weight criterion was not met. Data were not corrected for the initial moisture content of the samples. NaCl and PVP were used as calibration standards.

[2] = Milling experiments on amorphous materials, form by XRPD; details: 10 min. at 30 Hz, scraped sides
Description: (§1) Vapor stressing experiments were done on amorphous material from two preparations: lyophilization from p-dioxane:water 1:1 and crash precipitation from ethyl acetate with heptane. […] The majority of the stressed samples appeared as clear red solutions after 6 days. Those solutions were placed in vials of antisolvent for vapor diffusion. Dry and wet milling experiments were conducted on amorphous materials from the two preparations mentioned above. Amorphous materials were recovered from the dry milling experiments.
A solid sample of rifaximin was charged to a milling container with a milling ball. […] Solids were scraped from the sides of the vial after each interval.

[3] = Vapor stress / vapor diffusion stressing of amorphous materials, form by XRPD; details: methanol and tetrahydrofuran, both with water as antisolvent
Description: as §1

form by XRPD after moisture sorption/desorption [1] | XRPD Result after dry milling [2] | hygroscopicity [1] | wt loss upon equilibration at 5% RH ([1]; MB, Table 5, milled amorphous) | XRPD following DVS ([1]; Table 2, first sample block (lyophilization sample)) | XRPD following DVS ([1]; Table 2, second sample block (crash precipitation sample)) | weight gain under 95% RH ([1]; amorphous rifaximin made by milling, moisture balance) | form by XRPD after moisture sorption/desorption ([1]; listed as Amorphous) | form by XRPD after moisture sorption/desorption ([1]; listed as Rifaximin Amorphous) | form obtained in vapor diffusion experiments [3] | SMILES
α dry | – | – | – | – | – | – | – | – | – | CO[C@H]1/C=C/O[C@@]2(C)Oc3c(C)c(O)c4c(O)c(c5c(nc6cc(C)ccn65)c4c3C2=O)NC(=O)/C(C)=C\C=C\[C@H](C)[C@H](O)[C@@H](C)[C@@H](O)[C@@H](C)[C@H](OC(C)=O)[C@@H]1C [α dry]
Crystallization was not observed | amorphous | moderately hygroscopic | – | – | – | – | – | – | – | CO[C@H]1/C=C/O[C@@]2(C)Oc3c(C)c(O)c4c(O)c(c5c(nc6cc(C)ccn65)c4c3C2=O)NC(=O)/C(C)=C\C=C\[C@H](C)[C@H](O)[C@@H](C)[C@@H](O)[C@@H](C)[C@H](OC(C)=O)[C@@H]1C [lyophilized amorphous rifaximin]
amorphous | – | hygroscopic | 0.7% wt loss upon equilibration | no peaks, possibly amorphous | no peaks, possibly amorphous | 11.6% | amorphous | amorphous | Form β | CO[C@H]1/C=C/O[C@@]2(C)Oc3c(C)c(O)c4c(O)c(c5c(nc6cc(C)ccn65)c4c3C2=O)NC(=O)/C(C)=C\C=C\[C@H](C)[C@H](O)[C@@H](C)[C@@H](O)[C@@H](C)[C@H](OC(C)=O)[C@@H]1C [Amorphous rifaximin]
Crystallization was not observed | amorphous | moderately hygroscopic | – | – | – | – | – | – | – | CO[C@H]1/C=C/O[C@@]2(C)Oc3c(C)c(O)c4c(O)c(c5c(nc6cc(C)ccn65)c4c3C2=O)NC(=O)/C(C)=C\C=C\[C@H](C)[C@H](O)[C@@H](C)[C@@H](O)[C@@H](C)[C@H](OC(C)=O)[C@@H]1C [crash amorphous rifaximin]
